According to PubChem BioAssay (NCI):
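Briefly, cells in 96-well plates were exposed to five compound concentrations for 48 h, and endpoints were estimated by linear interpolation. Here, GI50 denotes the concentration required for 50% inhibition of growth. TGI: concentration producing complete growth inhibition.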

Experiments:
Assay in all cases: NCI anticancer screen, dose series, 48 h
786-0 renal = system: 786-0 renal
A498 renal = system: A498 renal
A549 NSCLC = system: A549 NSCLC
ACHN renal = system: ACHN renal
BT-549 breast = system: BT-549 breast
CAKI-1 renal = system: CAKI-1 renal
CCRF-CEM leukemia = system: CCRF-CEM leukemia
COLO 205 colon = system: COLO 205 colon
DU-145 prostate = system: DU-145 prostate
HCC-2998 colon = system: HCC-2998 colon
HCT-116 colon = system: HCT-116 colon
HCT-15 colon = system: HCT-15 colon
HL-60(TB) leukemia = system: HL-60(TB) leukemia
HOP-62 NSCLC = system: HOP-62 NSCLC
HOP-92 NSCLC = system: HOP-92 NSCLC
HS 578T breast = system: HS 578T breast
HT29 colon = system: HT29 colon
IGROV1 ovarian = system: IGROV1 ovarian
K-562 leukemia = system: K-562 leukemia
KM12 colon = system: KM12 colon
LOX IMVI melanoma = system: LOX IMVI melanoma
M14 melanoma = system: M14 melanoma
MALME-3M melanoma = system: MALME-3M melanoma
MCF7 breast = system: MCF7 breast
MDA-MB-231 breast = system: MDA-MB-231 breast
MDA-MB-435 = system: MDA-MB-435
MOLT-4 leukemia = system: MOLT-4 leukemia
NCI-H226 lung = system: NCI-H226 lung
NCI-H23 lung = system: NCI-H23 lung
NCI-H460 lung = system: NCI-H460 lung
NCI-H522 lung = system: NCI-H522 lung
NCI/ADR-RES ovarian = system: NCI/ADR-RES ovarian
OVCAR-3 ovarian = system: OVCAR-3 ovarian
OVCAR-4 ovarian = system: OVCAR-4 ovarian
OVCAR-5 ovarian = system: OVCAR-5 ovarian
OVCAR-8 ovarian = system: OVCAR-8 ovarian
PC-3 prostate = system: PC-3 prostate
RPMI-8226 leukemia = system: RPMI-8226 leukemia
RXF 393 renal = system: RXF 393 renal
SF-268 CNS = system: SF-268 CNS
SF-295 CNS = system: SF-295 CNS
SF-539 CNS = system: SF-539 CNS
SK-MEL-2 melanoma = system: SK-MEL-2 melanoma
SK-MEL-28 melanoma = system: SK-MEL-28 melanoma
SK-MEL-5 melanoma = system: SK-MEL-5 melanoma
SK-OV-3 ovarian = system: SK-OV-3 ovarian
SN12C renal = system: SN12C renal
SNB-19 CNS = system: SNB-19 CNS
SNB-75 CNS = system: SNB-75 CNS
SR leukemia = system: SR leukemia
SW-620 colon = system: SW-620 colon
T-47D breast = system: T-47D breast
TK-10 renal = system: TK-10 renal
U251 CNS = system: U251 CNS
UACC-257 melanoma = system: UACC-257 melanoma
UACC-62 melanoma = system: UACC-62 melanoma
UO-31 renal = system: UO-31 renal

## O=c1cnnc(N/N=C/c2ccccc2O)[nH]1
786-0 renal
  GI50: 5.1 µM
  TGI: > 100 µM
A498 renal
  GI50: 1810 nM
  TGI: 23.3 µM
A549 NSCLC
  GI50: 1550 nM
  TGI: > 100 µM
ACHN renal
  GI50: 1190 nM
  TGI: > 100 µM
BT-549 breast
  GI50: 6.36 µM
  TGI: > 100 µM
CAKI-1 renal
  GI50: 3.01 µM
  TGI: > 100 µM
CCRF-CEM leukemia
  GI50: 396 nM
  TGI: > 39.9 µM
COLO 205 colon
  GI50: 330 nM
  TGI: > 100 µM
DU-145 prostate
  GI50: 6.58 µM
  TGI: > 100 µM
HCC-2998 colon
  GI50: 3.02 µM
  TGI: > 100 µM
HCT-116 colon
  GI50: 33.7 nM
  TGI: > 100 µM
HCT-15 colon
  GI50: 539 nM
  TGI: > 100 µM
HL-60(TB) leukemia
  GI50: 2910 nM
  TGI: 21.8 µM
HOP-62 NSCLC
  GI50: 6.01 µM
  TGI: 53.7 µM
HOP-92 NSCLC
  GI50: 4.75 µM
  TGI: > 100 µM
HS 578T breast
  GI50: 28.2 µM
  TGI: > 100 µM
HT29 colon
  GI50: 646 nM
  TGI: > 100 µM
IGROV1 ovarian
  GI50: 3.2 µM
  TGI: 16.7 µM
K-562 leukemia
  GI50: 163 nM
  TGI: > 100 µM
KM12 colon
  GI50: 2850 nM
  TGI: > 100 µM
LOX IMVI melanoma
  GI50: 1070 nM
  TGI: > 48.2 µM
M14 melanoma
  GI50: 449 nM
  TGI: 19.2 µM
MALME-3M melanoma
  GI50: 426 nM
  TGI: 47.5 µM
MCF7 breast
  GI50: 39.6 nM
MDA-MB-231 breast
  GI50: 4.37 µM
  TGI: > 100 µM
MDA-MB-435
  GI50: 3.54 µM
  TGI: > 100 µM
MOLT-4 leukemia
  GI50: 973 nM
  TGI: > 100 µM
NCI-H226 lung
  GI50: 1630 nM
  TGI: 51.7 µM
NCI-H23 lung
  GI50: 1210 nM
  TGI: > 100 µM
NCI-H460 lung
  GI50: 1560 nM
  TGI: > 100 µM
NCI-H522 lung
  GI50: 1260 nM
  TGI: > 30.5 µM
NCI/ADR-RES ovarian
  GI50: 1280 nM
  TGI: > 64.5 µM
OVCAR-3 ovarian
  GI50: 324 nM
  TGI: > 100 µM
OVCAR-4 ovarian
  GI50: 264 nM
  TGI: > 23.8 µM
OVCAR-5 ovarian
  GI50: 1220 nM
  TGI: > 100 µM
OVCAR-8 ovarian
  GI50: 1810 nM
  TGI: > 100 µM
PC-3 prostate
  GI50: 2990 nM
  TGI: > 100 µM
RPMI-8226 leukemia
  GI50: 1230 nM
  TGI: > 72.9 µM
RXF 393 renal
  GI50: 5.16 µM
  TGI: 37.7 µM
SF-268 CNS
  GI50: 3.45 µM
  TGI: > 87.3 µM
SF-295 CNS
  GI50: 3.11 µM
  TGI: > 100 µM
SF-539 CNS
  GI50: 3.2 µM
  TGI: > 100 µM
SK-MEL-2 melanoma
  GI50: 21 µM
  TGI: > 100 µM
SK-MEL-28 melanoma
  GI50: 4.54 µM
  TGI: 53.2 µM
SK-MEL-5 melanoma
  GI50: 1250 nM
  TGI: > 39.6 µM
SK-OV-3 ovarian
  GI50: 3.6 µM
  TGI: > 100 µM
SN12C renal
  GI50: 4.21 µM
  TGI: > 100 µM
SNB-19 CNS
  GI50: 6.41 µM
  TGI: > 100 µM
SNB-75 CNS
  GI50: 8.03 µM
  TGI: 87.3 µM
SR leukemia
  GI50: 1510 nM
  TGI: > 100 µM
SW-620 colon
  GI50: 442 nM
  TGI: > 100 µM
T-47D breast
  GI50: 65.6 nM
  TGI: > 100 µM
TK-10 renal
  GI50: 8.26 µM
  TGI: > 100 µM
U251 CNS
  GI50: 2110 nM
  TGI: > 100 µM
UACC-257 melanoma
  GI50: 489 nM
  TGI: 6.8 µM
UACC-62 melanoma
  GI50: 1310 nM
  TGI: 7.88 µM
UO-31 renal
  GI50: 1610 nM
  TGI: 13.5 µM
